Measured values from US10828436B2, “Administering the noble gas argon during cardiopulmonary resuscitation” (Vanderbilt University, priority 2016, dated 2020).

What was measured:
[1] = test system: pig model of cardiac arrest; assay: Pig model of cardiac arrest and CPR with Argon/O2 given during CPR before ROSC; assay type: in vivo
Procedure: Argon treatment led to higher systemic pulse pressures (arterial pressure during compression minus pressure during decompression), a lower number of defibrillation attempts and epinephrine requirements to achieve ROSC, a higher ROSC rate, lower lactic acidosis upon ROSC and lower cardiac injury markers (CK-MB and Troponin I) 6 hours after ROSC.
In one example, in-vivo experiments included a systematic study of the effect of Argon administered during CPR in a pig model of cardiac arrest on cardiac and neurological function, histological and other molecular effects after ROSC including 24- or 48 hr survival studies. […] Other examples include cell culture (in vitro) and isolated heart (ex vivo) experiments. The in vitro experiments include a systematic study of the effect of Argon administered on reoxygenation after prolonged hypoxia on markers of cellular injury and cell death in cardiomycytes and neuronal cell cultures. The ex vivo experiments include a systematic study of the effect of Argon administered on reperfusion after global coronary ischemia on coronary and myocardial function and infarct size in rat isolated hearts. […]

human cardiomyocytes = assay: Hypoxia/reoxygenation in isolated cells, LDH injury marker; assay type: cell-based; settings: Argon for 10 min or 30 min upon reoxygenation after hypoxia, vs control HR with nitrogen
Procedure: (§1) These experiments show no evidence that Argon, given for 10 min or 30 min upon reoxygenation (R) after hypoxia (H), directly improves the cellular injury marker lactate dehydrogenase (LDH) compared to control HR with nitrogen.
(§2) In one example, in-vivo experiments included a systematic study of the effect of Argon administered during CPR in a pig model of cardiac arrest on cardiac and neurological function, histological and other molecular effects after ROSC including 24- or 48 hr survival studies. […] Other examples include cell culture (in vitro) and isolated heart (ex vivo) experiments. The in vitro experiments include a systematic study of the effect of Argon administered on reoxygenation after prolonged hypoxia on markers of cellular injury and cell death in cardiomycytes and neuronal cell cultures. The ex vivo experiments include a systematic study of the effect of Argon administered on reperfusion after global coronary ischemia on coronary and myocardial function and infarct size in rat isolated hearts.

[2] = test system: coronary artery endothelial cells; assay: as above; assay type: cell-based, human; settings: Argon for 10 min or 30 min upon reoxygenation after hypoxia, vs control HR with nitrogen
Procedure: as §1

rat isolated hearts = assay: Rat isolated hearts, 30 min global no-flow ischemia and 120 min reperfusion; settings: for defibrillation by lidocaine administration required to convert back to sinus rhythm: vs control hearts, P<0.05
Excerpt: as §2

rat isolated lungs = assay: Rat isolated lungs, pulmonary vascular resistance under different gas mixtures
Procedure: Rat isolated lungs ventilated with either 65% N2 or 65% Argon plus 30% O2 and 5% CO2 and perfused at a rate of 40 mL/kg body weight with physiological salt solution plus 4% albumin via cannulas placed into the pulmonary artery (PA) and left atrium. PA pressure is recorded throughout the experiment and analyzed to determine the effect of different gas mixtures on the pulmonary vascular resistance. Argon led to a reversible 28% drop in pulmonary perfusion pressure at constant flow compared to ventilation with Nitrogen before and after. P<0.05*vs Nitrogen, † vs Argon.

[3] = gas mixture given during CPR, pigs
[4] = 65% Argon for 10 or 120 min of reperfusion vs 65% Nitrogen

## [Ar] [Argon, argon]
[1]; CPR with 70% Argon, compared to control animals without Argon during CPR, in words
  outcome parameters: much improved
[1]; during CPR, vs Nitrogen/O2, in words
  systemic pulse pressures (arterial pressure during compression minus pressure during decompression): higher
[1]; [3]
  Arterial pH upon ROSC: 7.27 ± 0.05
  CK-MB 6 hrs after ROSC: 15.2 ± 4.3 ng/mL
  Epinephrine dose to achieve ROSC: 0.7 ± 0.2 mg
  Lactate upon ROSC: 6.8 ± 0.7 mEq
  Number of defibrillations to achieve ROSC: 2.4 ± 1.0 n
  Pulse pressure at 3 min CPR: 62.3 ± 3.7 mmHg
  ROSC: 100%
  Troponin I 6 hrs after ROSC: 6.8 ± 4.7 ng/mL
[1]; vs Nitrogen/O2, in words
  ROSC rate: higher
  cardiac injury markers (CK-MB and Troponin I) 6 hours after ROSC: lower
  epinephrine requirements to achieve ROSC: lower
  lactic acidosis upon ROSC: lower
  number of defibrillation attempts to achieve ROSC: lower
[1]; vs Nitrogen/O2, in words, listed as 70% Argon
  number of defibrillation attempts to achieve ROSC: less
Human cardiomyocytes
  improvement of cellular injury marker lactate dehydrogenase (LDH): no evidence
[2]
  improvement of cellular injury marker lactate dehydrogenase (LDH): no evidence
Rat isolated hearts; [4]
  coronary or myocardial function (diastolic and developed left ventricular pressure, coronary flow): no evidence of improved
  infarct size: no evidence of improved
Rat isolated hearts
  defibrillation by lidocaine administration required to convert back to sinus rhythm: significantly less
Rat isolated hearts; listed as 70% Argon
  defibrillation by lidocaine administration required to convert back to sinus rhythm: less
Rat isolated lungs; 65% Argon plus 30% O2 and 5% CO2, reversible, vs ventilation with Nitrogen before and after
  drop in pulmonary perfusion pressure at constant flow: 28%
Rat isolated lungs; isolated lungs, in words
  pulmonary artery pressure at constant flow: lower
